“Also recorded” adds a separate entry of the source.
Columns and labels:
GBM cells = details: at physiological levels; cited from earlier work
GL261 tumors [1] = test: Tumor edema by wet/dry weight (water content), GL261 model; assay type: in vivo; details: mice under anti-PD1 treatment
Procedure: (§1) Edema in the tumor was assessed immediately after animal sacrifice via wet/dry weight analysis to determine the water content as previously described (43).

recurrent GBM patient = test: MR T2-FLAIR imaging of a recurrent GBM patient before and after anti-PD-L1; assay type: in vivo, human; details: after 4 months of anti-PD-L1 treatment; NCT02336165
GBM patients [2] = test: Patient overall survival, Kaplan-Meier (trial NCT00662506); assay type: in vivo, human; details: cediranib, patients not on ASIs; n=33
glioblastoma = test: Survival of mice with glioblastoma under losartan and ICB (summary statement); assay type: in vivo; details: losartan with ICB, in lieu of corticosteroids
GL261 [3] = test: Solid stress by 3D micro-ultrasound tissue deformation, GL261; assay type: in vivo, mice; details: 2 weeks of losartan, n=4
From the text: Tumor size was visualized by 3D micro-ultrasound in anesthetized mice through the transparent cranial windows (45). Ultrasound was also used to measure tumor deformation as a readout of solid stress, following previous methods (14).

GL261 tumors [4] = test: Bulk RNASeq of GL261 tumors; assay type: in vivo, mice
GL261 [5] = test: Survival study, GL261 model; assay type: in vivo, mice; details: losartan with anti-PD1, no detectable tumors over 100 days
Procedure: (§2) Brain tumor implantation in the forebrain (50,000-100,000 cells), cranial window surgery and tumor resection as part of the standard of care treatment regimen were conducted as previously described (16, 43, 45). Mice were allowed to recover for 10-14 days after cranial window surgery prior to tumor implantation, and for 2 days after resection surgery (as part of the standard of care or bihemispheric model) prior to treatment initiation.

GL261 tumors [6] = test: Flow cytometry of tumors and cervical draining lymph nodes, GL261; assay type: in vivo, mice
Procedure: Single-cell suspensions were prepared from tumors and cervical draining lymph nodes that were isolated and dissected under stereotactic microscope. Cells were stained and processed (on a BD LSRFortessa X-20 Cell analyzer) and analyzed (FlowJo, Tree Star) as previously described (16). The following antibodies from BD Biosciences, EBioscience, and BioLegend were used at 1:200 dilutions: CD45-BV605, CD3-BV785, CD4-BV640, CD8-BV711A, NK1.1-APC; FoxP3-BV421; PD1-PerCP710A; TIGIT-PE Cy7; TIM3-PE; CD19-BV510; K167-FITC; GranzymeB-PE Cy7; CD11 b-BV785; MHCII-BV605; F4/80-PerCP Cy5.5; CX3CR1-APC; CD206-PE CY7; CD86-BV650; CCR2-PE; GR1-AF700.

CT2A = test: Survival study, CT2A model; assay type: in vivo, mice
Procedure: as §2

hyaluronic acid (HA) = test: Hyaluronic acid immunofluorescent imaging, GL261; assay type: in vivo, mice; details: 2 weeks of losartan, n=5
From the text: (§3) Brains with tumors were prepped and stained for histology as previously described (45) and imaged on a TissueFAXS (TissueGnostics) slide scanner at the Ragon Institute, Massachusetts Institute of Technology.

[7] = test system: MT-MMP-1 and -2 (Mt1, Mt2); test: scRNASeq of tumor endothelial cells (TECs) from GL261 tumors; assay type: in vivo, mice
Procedure: Following the single-cell suspension techniques of flow cytometry, tumor cells were blocked in 1% bovine serum albumin in phosphate-buffered saline solution (1% BSA/PBS). Cell suspensions were subsequently stained for flow cytometry for 30 min at 4° C. using antibodies specific for CD45 [30F11]-VioBlue from Miltenyi, CD3 [145-2C11]-PE from Biolegends, and CD 31 [MEC 13.3]-PE from BD Biosciences. Cells were washed with cold PBS, and then incubated for 15 min in 1.5 mL of 1% BSA/PBS containing 1 uM calcein AM (Life Technologies) and 0.33 uM TO-PRO-3 iodide (Life Technologies). Sorting was performed with the FACS Aria Fusion Special Order System (Becton Dickinson) using 488 nm (calcein AM, 530/30 filter; CD3-PE, 585/42 filter), 640 nm (TO-PRO-3, 670/14 filter), and 405 nm (CD45-VioBlue, 450/50 filter) lasers. […]
Sequencing data was processed from raw reads to gene expression matrices, starting with fbcl2fastq (v2.20.0) to generate demultiplexed FASTQ files. Bowtie was used to align the resulting paired-end scRNA-seq reads to the mouse transcriptome (mm10). Gene expression levels were quantified as transcripts-per-million (TPM) by running RSEM (v1.2.19) in paired-end mode. […]

[8] = test system: GL261 tumor blood vessels; test: OCT imaging of tumor perfusion; assay type: in vivo, mice; details: vs PBS-treated controls
From the text: In vivo imaging of perfused vessels was achieved via a custom-built optical coherence tomography (OCT) system as previously described (15). […] A depth-resolved profile was generated each day, and the raw tomograms were processed as previously described. Images across multiple days were co-registered using the Scale-invariant feature transform (SIFT) algorithm in ImageJ and Python.

005 GSC [9] = test: Tumor edema by wet/dry weight, 005 GSC model; assay type: in vivo, mice; details: after 2 weeks of treatment
Procedure: as §1

GL261 [10] = test: Survival study, GL261 model with standard of care (resection, radiation, temozolomide); assay type: in vivo, mice
Procedure: as §2

PD-L1 = PD-L1 immunohistochemistry, GL261; assay type: in vivo, mice; details: 2 weeks of losartan, n=11-13
From the text: as §3

005 GSC [11] = test: Survival study, 005 GSC model; assay type: in vivo, mice; details: losartan with anti-PD1, no detectable tumors over 100 days
Procedure: as §2

GBM = details: in combination with the standard of care; cited from earlier work
GBM patients [12] = details: human, in vivo; cited from earlier work
[13] = GL261, standard of care + anti-PD1 + losartan

Compound: CNC(=O)[C@H](Cc1c[nH]c2ccccc12)NC(=O)[C@@H](CC(=O)NO)CC(C)C [Ilomastat]
- toxicity to GBM cells (GBM cells): non-toxic
- anti-PD1-induced edema (GL261 tumors [1]): controls anti-PD1-induced edema comparably to losartan; also recorded: phenocopied the ability of losartan to prevent anti-PD1-induced edema

Compound: MEDI4763: anti-PD-L1 (NCT02336165) given to a recurrent GBM patient
- edema on MR T2-FLAIR images (recurrent GBM patient): increased edema

Compound: COc1cc2c(Oc3ccc4[nH]c(C)cc4c3F)ncnc2cc1OCCCN1CCCC1 [cediranib]
- overall survival (GBM patients [2]): 527 days

Compound: CCCCc1nc(Cl)c(CO)n1Cc1ccc(-c2ccccc2-c2nn[nH]n2)cc1 [losartan]
- mice cured (glioblastoma): 20%
- solid stress (tissue deformation) (GL261 [3]): reduces
- global and pro-tumor (M2-like) TAM-associated genes (GL261 tumors [4]; bulk RNASeq): reduced the expression
- microglia-associated genes (GL261 tumors [4]; bulk RNASeq): upregulated
- gene expression related to ECM, angiogenesis, immunosuppression, and hypoxia (GL261 tumors [4]; vs controls, n=3): significantly reduced
- long-term survivors (LTS) (GL261 [5]): 15%
- anti-PD1-induced edema (GL261 tumors [1]): decreases anti-PD1-induced edema
- myeloid cells in tumors (GL261 tumors [6]): fewer myeloid cells
- effect of adding losartan to anti-PD1 on survival (CT2A): failed to further enhance ICB efficacy
- HA levels (hyaluronic acid (HA)): reduces
- TEC MT-MMP-1 and -2 (Mt1, Mt2) expression [7]: downregulating
- tumor vessel normalization and perfusion [8]: greater overall perfusion
- anti-PD1-induced edema (005 GSC [9]): decreases anti-PD1-induced edema
- OS under the standard of care without ICB (GL261 [10]; GBM mouse models, losartan not given in conjunction with ICB): does not improve OS
- long-term survivors (GL261 [10]; [13]): 43%
- tumor re-challenge of long-term survivors (GL261 [10]; [13]): rejected tumor re-challenge
- mice cured (GL261 [10]; losartan with ICB in combination with standard of care treatment): 40%
- PD-L1 protein expression (PD-L1): reduces
- long-term survivors (LTS) (005 GSC [11]): 22%
- median OS (GBM): failed to improve median OS

Compound: bevacizumab
- OS in GBM patients under ICB therapy (GBM patients [12]): failed to improve OS
